One may read the inhibition as how much of the control response was suppressed.

Structures are written as SMILES.

The source of these data is patent publication US11053175B2, “Thioether compounds as nitrification inhibitors” (BASF SE, priority 2015, dated 2021).

The subject of one assay is nitrification in soil. Nature of the assay: Inhibition of nitrification in soil (48 well plate, ammonium sulfate, colour reaction read at 540 nm). It is filed as cell-based. The note with it: dose of 3% a.i./NH, best value obtained, read-out: IN (best inhibition value, inhibition of nitrification = 100 - % activity compared to control).
Regarding `C#CCSc1sc2ccccc2[n+]1C` [Compound 2-1], the inhibition at 3 % strength was 20%. Take `C#CCS/C(N)=N\N=C\c1ccc(N(C)C)cc1` [Compound 2-2]: the inhibition at 3 % strength was 20%. On the same count and under the same terms, for `C#CC[S+]([O-])Cc1ccc(OC)cc1` (stereo not shown) [Compound 2-3] the value was 23%.

On to `C#CCS(=O)(=O)Cc1ccccc1` [Compound 2-4], for which the inhibition at 3 % strength was 23%. Same read-out and setting: for `C#CC[S+]([O-])Cc1ccc(Cl)cc1` (stereo not shown) [Compound 2-5] the value was 24%; for `C#CCSCc1ccc(Cl)cc1` [Compound 2-6], 28%. Turning to `C#CCSCc1ccccc1` [Compound 2-7], the inhibition at 3 % strength turned out to be 28%. The same measure, in the same setting: for `C#CCSc1nnc(N)s1` [Compound 2-8] the value was 38%; for `C#CCSc1ccccc1` [Compound 2-9], 48%; for `C#CCSCC#C` [Compound 2-10], 97%.

A further assay relates to nitrification in soil. Described as above. In kind it is cell-based. To be noted: 72 h, dose of 10 ppm; soil, up to 72 hrs at room temperature; control DMSO only; best value obtained; read-out: IN (best inhibition value, inhibition of nitrification = 100 - % activity compared to control). How it is done: The compounds of the invention have been tested as follows in terms of the inhibition of nitrification: Soil was sampled fresh from a field (e.g. Limburgerhof), dried and sieved through a 500 μm sieve. Approximately 200 mg of soil were placed into each well of a 48 well plate. Compounds, or DMSO alone, were added at a concentration of 10 ppm, dissolved in 1% DMSO. 6 μmol ammonium sulfate was added per well as well as 4.8 mg NaClO3.
Subsequently, the samples were incubated at room temperature for up to 72 hrs. After the incubation period 64 mg KCl were added and mixed. 25 μl of the supernatant were placed into a fresh plate and 260 μl of a color reaction solution (from Merck Nr 1.11799.0100) were added.
Measurements were taken with a Tecan plate Reader at 540 nm wavelength.
Inhibition is calculated as x=% activity compared to control, and converted to 100-x to give the value of inhibition, rather than activity.
With `C#CCS/C(N)=N\N=C\c1ccc(OC)cc1` [Compound 1-1], the inhibition at 10 ppm worked out at 42%. The same measure, in the same setting: the result for `C#CCSC1=NCCN1/N=C/c1ccc(C)cc1` [Compound 1-3] reads 68%; that for `C#CCSc1ncccn1` [Compound 1-6], 59%; that for `C#CC[S+]([O-])CC#C` [Compound 1-7], 72%. Same read-out and setting: the result for `C#CCS(=O)(=O)CC#C` [Compound 1-8] reads 70%; that for `C#CCS/C(C)=N\O` [Compound 1-9], 67%; that for `C#CCS/C(N)=N\N=C\c1ccc(F)cc1` [Compound 1-10], 59%. On the same count and under the same terms, for `C#CCSc1nc2ccsc2c(=O)n1C` [Compound 1-11] the value was 55%.

For the molecule `C#CCSc1nc2c(cc1C#N)CCC2` [Compound 1-12], the inhibition at 10 ppm was determined as 52%. Turning to `C#CCSc1nnc(S)s1` [Compound 1-13], the inhibition at 10 ppm stood at 51%. For `C#CCSC1=NNC(c2ccccn2)S1` (stereo not shown) [Compound 1-17], the inhibition at 10 ppm came out at 46%. As for `C#CCSc1sc2ccccc2[n+]1C` [Compound 1-18], the inhibition at 10 ppm is 44%.

Take `C#CCSc1nccn1-c1ncc(C(F)(F)F)cc1Cl` [Compound 1-19]: the inhibition at 10 ppm stood at 42%.

With `C#CCCS/C(C)=N\O` [Compound 1-20], the inhibition at 10 ppm stood at 48%. For `C#CCSc1cnccn1` [Compound 1-21], the inhibition at 10 ppm stood at 69%. Same read-out and setting: the result for `C#CCSc1cnc2ccccc2n1` [Compound 1-23] reads 33%.

The same assay, now with this note: dose of 10 ppm; soil, up to 72 hrs at room temperature; control DMSO only; best value obtained.
With `C#CCSc1sc2ccccc2[n+]1C.[Br-]` [Compound 1-22], the “IN (best inhibition value, inhibition of nitrification = 100 - % activity compared to control)” value amounted to 42%.

The same assay, now with this note: reference compound, same conditions, dose of 10 ppm; read-out: IN (inhibition value, inhibition of nitrification).
Take `C#Cc1ccccc1` [Phenylacetylene, phenylacetylene, reference compound]: the inhibition at 10 ppm worked out at 7%.
